In patent US20260167692A1, “POLYPEPTIDES AND RELATED SUBSTANCES AGAINST HAIR LOSS AND DERMATITIS, AND USES THEREOF” (SHENZHEN INSTITUTES OF ADVANCED TECHNOLOGY, priority 2023, published 2026):
Where two headings read alike, the source gives them in different places. Where a SMILES comes first, the peptide text is derived from it. Where no end group is shown, it is not given here.

What was measured:
[1] = system: human primary dermal papilla cells; experiment: Cortisol-induced psychological stress hair loss cell model; type: cell-based; conditions: 1 μM cortisol, 24 hours
Procedure: A fibroblast medium was used as a medium. […] Expression levels of cellular molecular markers (including 5α-dehydrogenase, GR, AR, CD200, IL-6, BCL2, and BAX) were detected after 24 hours.

[2] = target: T1, GPR158 receptor (Homo sapiens, UniProt Q5T848); experiment: Binding of Cy5-labeled Ocn49/Ocn19 to HeLa cells highly expressing GPR158; type: cell-based; conditions: Cy5-labeled polypeptide incubated with GPR158-HeLa cells at 4° C., washed with PBS, FIG. 7
T1 construct: expressed in transfected cells; host or cells: HeLa cell line highly expressing GPR158 (GPR158-HeLa)
T1 sequence (Q5T848 24-1215): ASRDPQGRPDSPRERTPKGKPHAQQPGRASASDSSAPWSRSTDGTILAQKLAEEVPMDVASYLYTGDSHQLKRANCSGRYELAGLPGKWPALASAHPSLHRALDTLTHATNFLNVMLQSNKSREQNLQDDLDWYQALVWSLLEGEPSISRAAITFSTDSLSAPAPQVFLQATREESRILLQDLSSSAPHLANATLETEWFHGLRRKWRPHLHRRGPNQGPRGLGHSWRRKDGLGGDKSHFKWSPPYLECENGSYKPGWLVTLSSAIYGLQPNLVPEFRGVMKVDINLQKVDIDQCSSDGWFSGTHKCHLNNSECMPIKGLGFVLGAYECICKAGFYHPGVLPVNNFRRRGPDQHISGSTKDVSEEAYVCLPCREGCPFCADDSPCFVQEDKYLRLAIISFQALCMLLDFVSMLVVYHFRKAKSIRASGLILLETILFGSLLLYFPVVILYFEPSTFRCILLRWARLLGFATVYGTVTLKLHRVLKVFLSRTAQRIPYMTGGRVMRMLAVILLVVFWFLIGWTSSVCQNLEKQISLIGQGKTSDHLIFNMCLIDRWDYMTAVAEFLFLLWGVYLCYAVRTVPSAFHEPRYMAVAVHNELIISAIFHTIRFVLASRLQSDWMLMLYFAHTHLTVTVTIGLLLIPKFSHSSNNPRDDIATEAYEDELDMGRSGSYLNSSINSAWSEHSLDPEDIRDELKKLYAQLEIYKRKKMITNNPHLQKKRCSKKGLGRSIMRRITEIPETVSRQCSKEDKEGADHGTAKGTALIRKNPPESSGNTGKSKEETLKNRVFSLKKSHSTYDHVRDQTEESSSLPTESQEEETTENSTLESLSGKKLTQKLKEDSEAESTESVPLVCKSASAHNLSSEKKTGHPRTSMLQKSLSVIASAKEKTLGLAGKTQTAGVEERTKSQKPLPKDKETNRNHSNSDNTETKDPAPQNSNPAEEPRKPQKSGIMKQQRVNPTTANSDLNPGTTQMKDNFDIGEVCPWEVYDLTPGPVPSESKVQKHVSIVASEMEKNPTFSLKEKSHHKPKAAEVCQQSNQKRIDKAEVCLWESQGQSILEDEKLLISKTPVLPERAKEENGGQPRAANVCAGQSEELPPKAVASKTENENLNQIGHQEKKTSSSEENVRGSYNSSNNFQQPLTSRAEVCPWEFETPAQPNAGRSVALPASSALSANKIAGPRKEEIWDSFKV
Procedure: The polypeptide prepared in Example 1 was employed in this example, and a binding condition was observed via in vitro culture of the polypeptide with a Hela cell line highly expressing a GPR158 receptor.
(§1) A specific method involved that Cy5-labeled full-length human osteocalcin Ocn49, truncated human osteocalcin Ocn19 (SEQ ID NO.1), and HeLa cells highly expressing GPR158 were incubated at 4° C., and cells were subsequently washed with PBS. Polypeptides incapable of binding to the cells were considered as non-specific ligands, while polypeptides capable of binding to the cells were considered as specifically binding ligands. An interaction between the polypeptides and the receptor was verified accordingly.

[3] = system: human primary dermal papilla cells; conditions: 10 nM DHT, 24 hours
Procedure: A fibroblast medium was used as a medium.
24 hours after serum-starved cells were removed, human primary dermal papilla cells were treated with a high level of androgen by adding 10 nM DHT to a culture medium. Expression levels of cellular molecular markers (including 5α-dehydrogenase, AR, CD200, IL-6, BCL2, BAX, and FABP3) were detected after 24 hours. Homologous polypeptides from different species (the polypeptides from Example 7) were concurrently added for co-culture, and the expression levels of the cellular molecular markers were detected after 24 hours.

[4] = system: male C57BL/6 mice; experiment: Androgenetic (seborrheic) hair loss mouse model (DHT); type: in vivo; conditions: 28 days
Procedure: 7-week-old male C57BL/6 mice were treated with application of DHT (a modeling and experimental cycle of 28 days).
Hair at a telogen phase on 2×2 cm areas of dorsa was removed, and the areas were depilated using a hair removal cream. A DHT solution (0.2%, w/v) was prepared in an ethanol solution (50%, v/v). Mice received topical application of the DHT solution (0.1 mL/cm^2) to the depilated areas, once a day, for 28 consecutive days. Mice in the other group received the polypeptide via oral gavage at a concentration of 0.5 mg/kg/day while applied with the DHT daily.

[5] = system: brains, ovaries, uteruses and adrenal glands of female mice; experiment: In vivo targeting of polypeptide-ICG/Cy5 probe in female mice (small animal imaging); set-up: species or system mouse; conditions: adult female mice, tail vein injection 100 μL of ICG- or Cy5-labeled polypeptide, imaging after 24 hours, vs control group
Procedure: Adult female mice were intravenously injected via tail veins with the following: the polypeptide-ICG probe solution prepared in Example 2/Cy5-labeled polypeptide, an ICG solution (2 mM)/control polypeptide (a scrambled, irrelevant polypeptide), and a phosphate buffered saline (PBS). Each mouse received an injection volume of 100 μL. After 24 hours, detection was performed using a small animal imaging instrument.

[6] = system: brain, gonad and adrenal gland tissues of male mice; experiment: In vivo targeting of Cy5-labeled polypeptide in male mice (small animal imaging); set-up: species or system mouse; conditions: adult male mice, tail vein injection 100 μL of Cy5-labeled polypeptide, imaging after 24 hours, vs control group
Procedure: Adult male mice were intravenously injected via tail veins with the following: the Cy5-labeled polypeptide prepared in Example 2, a control polypeptide (a scrambled, irrelevant polypeptide), and a PBS. Each mouse received an injection volume of 100 μL. After 24 hours, detection was performed using a small animal imaging instrument.

[7] = target: T2, human GPR158 receptor (on HeLa cells highly expressing a GPR158 receptor) (human, UniProt Q5T848 24-1215); experiment: Cy5-labelled polypeptide incubated at 4 C with HeLa cells highly expressing GPR158, washed with PBS, fluorescence imaging
T2 construct: whole, on cells; also called GPR158-HeLa cells; human GPR158 receptor cells
T2 sequence (looked up): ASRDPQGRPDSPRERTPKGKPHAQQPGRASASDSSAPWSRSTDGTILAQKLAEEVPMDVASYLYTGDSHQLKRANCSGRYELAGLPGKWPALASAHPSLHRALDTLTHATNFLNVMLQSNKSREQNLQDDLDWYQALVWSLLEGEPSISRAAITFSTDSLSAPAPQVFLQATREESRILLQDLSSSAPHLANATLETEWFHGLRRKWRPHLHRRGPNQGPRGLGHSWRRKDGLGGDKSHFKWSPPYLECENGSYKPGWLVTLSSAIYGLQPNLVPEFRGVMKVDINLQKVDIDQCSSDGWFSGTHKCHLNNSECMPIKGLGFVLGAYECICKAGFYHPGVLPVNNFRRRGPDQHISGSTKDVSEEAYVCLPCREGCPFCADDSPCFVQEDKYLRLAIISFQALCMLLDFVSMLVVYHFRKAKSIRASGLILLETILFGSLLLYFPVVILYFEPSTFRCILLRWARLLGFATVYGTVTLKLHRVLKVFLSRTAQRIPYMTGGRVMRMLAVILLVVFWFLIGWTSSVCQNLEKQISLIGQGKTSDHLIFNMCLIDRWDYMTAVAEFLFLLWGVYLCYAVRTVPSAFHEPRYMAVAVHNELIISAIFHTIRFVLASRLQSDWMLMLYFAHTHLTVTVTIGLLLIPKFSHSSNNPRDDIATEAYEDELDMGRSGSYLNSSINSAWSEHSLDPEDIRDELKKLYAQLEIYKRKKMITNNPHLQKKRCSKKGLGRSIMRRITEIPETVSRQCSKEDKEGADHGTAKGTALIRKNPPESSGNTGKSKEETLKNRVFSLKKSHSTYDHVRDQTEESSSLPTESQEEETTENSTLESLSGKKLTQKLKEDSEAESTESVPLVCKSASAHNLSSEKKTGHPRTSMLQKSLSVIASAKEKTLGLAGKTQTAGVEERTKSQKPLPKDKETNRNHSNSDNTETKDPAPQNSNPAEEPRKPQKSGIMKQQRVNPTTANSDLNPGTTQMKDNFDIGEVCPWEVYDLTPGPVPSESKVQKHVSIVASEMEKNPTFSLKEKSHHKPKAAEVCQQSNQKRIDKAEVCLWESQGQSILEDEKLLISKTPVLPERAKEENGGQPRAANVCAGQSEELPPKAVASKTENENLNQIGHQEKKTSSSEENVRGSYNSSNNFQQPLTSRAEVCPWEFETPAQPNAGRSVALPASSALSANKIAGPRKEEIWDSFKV
Procedure: as §1

[8] = topical DHT 0.2% w/v, 0.1 mL/cm^2 once a day

C[C@]12CCC(=O)C=C1CC[C@@H]1[C@@H]2[C@@H](O)C[C@@]2(C)[C@H]1CC[C@]2(O)C(=O)CO [cortisol]
apoptosis of hair follicle cells (Caspase-3, BCL2, BAX) [1]: increased
expression level of hair follicle regression marker MMP-9 [1]: increased
expression levels of STIP1 and inflammatory factors (TGF-β1 and IL-6) [1]: increased
expression levels of glucocorticoid receptor (GR), androgen receptor (AR), and 5α-reductase [1]: significantly increased
expression levels of hair growth marker GAS6 and hair follicle stem cell markers CD200 and CD133 [1]: decreased

Ocn49: full-length human osteocalcin (YLYQWLGAPVPYPDPLEPRREVCELNPDCDELADHIGFQEAYRRFYGPV)
binding to the GPR158 receptor [2]: capable of binding to the GPR158 receptor
internalization of the GPR158 receptor [2]: induces internalization of the GPR158 receptor

C[C@]12CCC(=O)C[C@@H]1CC[C@@H]1[C@@H]2CC[C@]2(C)[C@@H](O)CC[C@@H]12 [DHT, dihydrotestosterone]
apoptosis of hair follicle cells (Caspase-3, BCL2, BAX) [3]: increased
expression level of hair follicle regression marker MMP-9 [3]: increased
expression level of hair follicle stem cell marker CD200 [3]: decreased
expression levels of androgen receptor (AR), 5α-reductase, androgen synthesis-related enzymes (3βHSD and 17βHSD3) [3]: significantly increased
expression levels of fatty acid-binding protein FABP3 and adipogenic differentiation factor PPARγ [3]: increased
expression levels of inflammatory factors (TGF-β, TNF-α, and IL-6) [3]: increased
expression level of AR in cervicodorsal skins (immunofluorescence) ([4]; topical DHT 0.2% w/v once a day, FIG. 13): significantly increased
genes related to lipases, adipocyte differentiation, and lipoproteins in cervicodorsal skins ([4]; topical DHT 0.2% w/v once a day, FIG. 14): significantly increased
skin expression level of β-catenin gene [4, 8]: decrease
skin expression levels of TGF-β, DKK1, IL-6, and AR genes [4, 8]: increase

CC(C)C[C@H](NC(=O)[C@@H](N)Cc1ccc(O)cc1)C(=O)NCC(=O)N[C@@H](C)C(=O)N[C@@H](CO)C(=O)N[C@H](C(=O)N1CCC[C@H]1C(=O)N[C@@H](CO)C(=O)N1CCC[C@H]1C(=O)N[C@@H](CC(=O)O)C(=O)N1CCC[C@H]1C(=O)N[C@@H](CC(C)C)C(=O)N[C@@H](CCC(=O)O)C(=O)N1CCC[C@H]1C(=O)N[C@H](C(=O)O)[C@@H](C)O)C(C)C [mO15, YLGASVPSPDPLEPT] (H-YLGASVPSPDPLEPT-OH; N-terminus and C-terminus assumed)
fluorescence signals in brain tissues (brain entry) [5]: enters the brains
localization and binding in hypothalamus, ovary and uterus, and adrenal gland tissues (fluorescence signals) [5]: specific localization and binding capabilities
fluorescence signals in brain tissues (brain entry) [6]: enters the brains
localization and binding in brain, gonad (testis, epididymis) and adrenal gland tissues (fluorescence signals) [6]: specific localization and binding capabilities

YLYQWLGAPVPYPDPLEPR (listed as Homo sapiens) [Ocn19, human osteocalcin-derived peptide (truncated human osteocalcin)]
binding to the GPR158 receptor [2]: capable of binding to the GPR158 receptor
internalization of the GPR158 receptor [2]: induces internalization of the GPR158 receptor

YLYQWLGAPVPYPDPLEPRREVCELNPDCDELADHIGFQEAYRRFYGPV (ligand, UniProt P02818 52-100, looked up, ends and bridges not checked; also: Cy5 label, site not given here, mature; also called human Ocn49) [full-length human osteocalcin Ocn49]
binding result [7]: binds

YLYQWLGAPVPYPDPLEPR (not fully specified, also called human Ocn19) [truncated human osteocalcin Ocn19 (human osteocalcin-derived peptide)]
binding result [7]: binds
